Test results: patent US10791742B2, “Plant growth regulator compounds” (SYNGENTA PARTICIPATIONS AG, priority 2016, dated 2020)

How the values were obtained:
[1] = tested on: corn plants (variety NK OCTET); test: Reduced plant water use in corn (foliar spray, pot weighing); format: in vivo; conditions: for % WU 0 DAA (PM): Table A3 (comparison trial), 0 DAA p.m.
Method: (§1) Compounds were tested for their effect on reducing plant water use as follows. The compounds were applied by foliar spray to 12 day old corn plants (variety NK OCTET) grown in controlled environment plant growth chambers. All compounds were applied using an emulsifiable concentrate (EC) formulation that was diluted to the desired concentrations with water containing 0.4% of the adjuvant rape seed methyl ester. Plant water use during the day was assessed by repeated weighing of the pots in which the plants were grown before and after application of the compounds at the indicated times (expressed in days after application (DAA)). The water use data before application was used to correct any differences in water use arising due to non-treatment effects (e.g. due to differences in plant size). The untransformed water use values were subjected to an analysis of covariance, fitting the effect of treatment and using the baseline water use 1 day before application as a covariate. Application of the chemicals (0 DAA) took place approximately between 08:00 and 09:30 a.m. Water use (WU) was measured within day time (chamber light is on 06:00 to 20:00) at these timepoints: 0 DAA a.m. (10:30-12:50), 0 DAA p.m. (14:00-19:50).

[2] = tested on: soybean plants (variety S20-G7); test: Reduced plant water use in soybean (foliar spray, pot weighing); format: in vivo; conditions: Table A4, 125 μM foliar spray, water use vs negative control, average of 6 pots; for % WU 0 DAA (AM): 0 DAA a.m. (10:30-12:50); for % WU 0 DAA (PM): 0 DAA p.m. (14:00-19:50)
Method: as §1, with “soybean” for “corn”, “S20-G7)” for “NK OCTET)”, “concentration” for “concentrations”, “additional surfactant (EXTRAVON 1 g/20 L).” for “0.4% of the adjuvant rape seed methyl ester.”, “covariate.” for “covariate. Application of the chemicals (0 DAA) took place approximately between 08:00 and 09:30 a.m. Water use (WU) was measured within day time (chamber light is on 06:00 to 20:00) at these timepoints: 0 DAA a.m. (10:30-12:50), 0 DAA p.m. (14:00-19:50).”
Application of the chemicals (0 DAA) took place approximately between 08:00 and 09:30 a.m. Water use (WU) was measured within day time (chamber light is on 06:00 to 20:00) at these timepoints: 0 DAA a.m. (10:30-12:50), 0 DAA p.m. (14:00-19:50).

[3] = corn, 500 μM foliar spray, water use vs negative control, average of 6 pots

Row | SMILES | % WU 0 DAA (PM) [1, 3] | % WU 0 DAA (AM) [2] | % WU 0 DAA (PM) [2] | also measured
1 | CCN1C(=O)CC(C)c2cc(CNS(=O)(=O)c3ccccc3)ccc21 (centres unmarked) [A, reference compound] | −24% |  |  | 
2 | CCN1C(=O)OC(C)c2cc(CNS(=O)(=O)c3ccccc3)ccc21 (centres unmarked) [Compound 13.001, N-[(1-ethyl-4-methyl-2-oxo-4H-3,1-benzoxazin-6-yl)methyl]-benzenesulfonamide] | −40% |  |  | ABA agonist potency compared with compound A (in words) ([1]; concluded from Table A3, corn water use at 500 μM): more potent ABA agonist than dihydroquinolinone compound A
3 | CCCN1C(=O)OC(C)c2cc(CNS(=O)(=O)c3ccccc3)ccc21 (centres unmarked) [Compound 14.001, N-[(4-methyl-2-oxo-1-propyl-4H-3,1-benzoxazin-6-yl)methyl]-benzenesulfonamide] |  | −49% | −55% | 
4 | CCCN1C(=O)OC(C)c2cc(CNS(=O)(=O)c3ccc(Cl)s3)ccc21 (centres unmarked) [Compound 14.048, 5-chloro-N-[(4-methyl-2-oxo-1-propyl-4H-3,1-benzoxazin-6-yl)methyl]thiophene-2-sulfonamide] |  | −51% | −55% | 
5 | CCN1C(=O)OC(C)c2cc(CNS(=O)(=O)c3ccccc3)cc(F)c21 (centres unmarked) [Compound 20.001, N-[(1-ethyl-8-fluoro-4-methy1-2-oxo-4H-3,1-benzoxazin-6-yl)methyl]benzenesulfonamide] |  |  |  | % WU 0 DAA (AM) ([1]; Table A2 (further trial), corn, 500 μM foliar spray, water use vs negative control, 0 DAA a.m. (10:30-12:50), average of 6 pots): −37%; % WU ODAA (PM) ([1]; Table A2 (further trial), corn, 500 μM foliar spray, water use vs negative control, 0 DAA p.m. (14:00-19:50), average of 6 pots): −42%
6 | CCCN1C(=O)OC(C)c2cc(CNS(=O)(=O)c3ccccc3)cc(F)c21 (centres unmarked) [Compound 25.001, N-[(8-fluoro-4-methyl-2-oxo-1-propyl-4H-3,1-benzoxazin-6-yl)methyl]benzenesulfonamide] |  | −48% | −53% | 
